Laboratory results: the supplement of paper PMC13380429
± gives the standard deviation of the averaged measurements.

What was measured:
Settings in all cases: 72 h
U2OS [1] = assay: drug sensitivity score (DSS) for viability; higher = more toxic; extreme values may be limits of the assay
Calu-3 [2] = assay: as above
HepG2 [3] = assay: as above
Vero E6 [4] = assay: as above
Caco-2 [5] = assay: as above
U2OS [6] = assay: relative viability EC50 (midpoint between 100% and the lowest measured viability); higher = less toxic
Calu-3 [7] = assay: as above
HepG2 [8] = assay: as above
Vero E6 [9] = assay: as above
U2OS [10] = assay: cell viability relative to DMSO; higher = less toxic
Calu-3 [11] = assay: as above
HepG2 [12] = assay: as above
Vero E6 [13] = assay: as above
Caco-2 [14] = assay: as above
Caco-2 [15] = assay: relative viability EC50 (midpoint between 100% and the lowest measured viability); higher = less toxic

| SMILES | drug sensitivity score (U2OS [1]) | drug sensitivity score (Calu-3 [2]) | drug sensitivity score (HepG2 [3]) | drug sensitivity score (Vero E6 [4]) | drug sensitivity score (Caco-2 [5]) | relative viability EC50 (U2OS [6]) [µM] | relative viability EC50 (Calu-3 [7]) [µM] | relative viability EC50 (HepG2 [8]) [µM] | relative viability EC50 (Vero E6 [9]) [µM] | cell viability (U2OS [10]; 1 nM) [%] | cell viability (U2OS [10]; 10 nM) [%] | cell viability (U2OS [10]; 100 nM) [%] | cell viability (U2OS [10]; 1000 nM) [%] | cell viability (U2OS [10]; 10000 nM) [%] | cell viability (Calu-3 [11]; 1 nM) [%] | cell viability (Calu-3 [11]; 10 nM) [%] | cell viability (Calu-3 [11]; 100 nM) [%] | cell viability (Calu-3 [11]; 1000 nM) [%] | cell viability (Calu-3 [11]; 10000 nM) [%] | cell viability (HepG2 [12]; 1 nM) [%] | cell viability (HepG2 [12]; 10 nM) [%] | cell viability (HepG2 [12]; 100 nM) [%] | cell viability (HepG2 [12]; 1000 nM) [%] | cell viability (HepG2 [12]; 10000 nM) [%] | cell viability (Vero E6 [13]; 1 nM) [%] | cell viability (Vero E6 [13]; 10 nM) [%] | cell viability (Vero E6 [13]; 100 nM) [%] | cell viability (Vero E6 [13]; 1000 nM) [%] | cell viability (Vero E6 [13]; 10000 nM) [%] | cell viability (Caco-2 [14]; 1 nM) [%] | cell viability (Caco-2 [14]; 10 nM) [%] | cell viability (Caco-2 [14]; 100 nM) [%] | cell viability (Caco-2 [14]; 1000 nM) [%] | cell viability (Caco-2 [14]; 10000 nM) [%] | relative viability EC50 (Caco-2 [15]) [µM] |
| --- | --- | --- | --- | --- | --- | --- | --- | --- | --- | --- | --- | --- | --- | --- | --- | --- | --- | --- | --- | --- | --- | --- | --- | --- | --- | --- | --- | --- | --- | --- | --- | --- | --- | --- | --- |
| NCCCCN=C(N)N [agmatine] | 0 | 0 | 0 | 0 | 3.4 | > 10 | > 10 | > 10 | > 10 | 103 | 96.3 | 100 | 100 | 99.2 | 94.8 | 95.7 | 93.2 | 89.4 | 99.9 | 95.5 | 96.6 | 99.4 | 110 | 94.7 | 103 | 97.6 | 97.4 | 104 | 88.6 | 114 | 82.8 | 92.5 | 82.5 | 72.2 |  |
| CC(=O)Oc1ccc(C(c2ccc(OC(C)=O)cc2)c2ccccn2)cc1 [bisacodyl] | 0.6 | 0.1 | 0 | 1 | 4.4 | > 10 | > 10 | > 10 | > 10 | 101 | 102 | 100 | 89.9 | 87.3 | 111 | 105 | 102 | 99.2 | 88.2 | 98.3 | 99.5 | 104 | 95.1 | 100 | 99.6 | 94.1 | 97.1 | 95.7 | 80.7 | 92.8 | 84.9 | 107 | 80.5 | 60.3 |  |
| CC(C)(c1ccc(O)cc1)c1ccc(O)cc1 [bisphenol-A] | 0 |  | 0 | 0.1 | 0.1 | > 10 |  | > 10 | > 10 | 101 | 109 | 99.6 | 107 | 102 |  |  |  |  |  | 98.7 | 94.4 | 103 | 94.6 | 106 | 107 | 105 | 99.2 | 98 | 88.6 | 92.2 | 111 | 102 | 97.3 | 88.8 | > 10 |
| O=P1(N(CCCl)CCCl)NCCCO1 (centres undefined) [cyclophosphamide] | 0 |  | 0 | 0 | 0 | > 10 |  | > 10 | > 10 | 102 | 102 | 101 | 95.5 | 99.2 |  |  |  |  |  | 91.9 | 98.9 | 91.5 | 99.8 | 105 | 97.6 | 99.8 | 99.4 | 98.2 | 94 | 100 | 100 | 95.6 | 86.7 | 98.6 | > 10 |
| CO[C@@H](C(=O)N1Cc2[nH]nc(NC(=O)c3ccc(N4CCN(C)CC4)cc3)c2C1)c1ccccc1 [danusertib] | 6.8 | 7.5 | 10.7 | 0.4 | 2.9 | 1.35 |  | 0.192 | > 10 | 99.6 | 103 | 93.9 | 74.8 | 31 | 89 | 93.8 | 77.1 | 76.9 | 52.9 | 93.4 | 95.9 | 78.3 | 55.8 | 42.6 | 104 | 101 | 104 | 98.6 | 84.2 | 94.7 | 95.4 | 94.9 | 82.9 | 71.7 |  |
| Cc1cc(C)cc(NC(=O)Cc2ccc(OC(C)(C)C(=O)O)cc2)c1 [efaproxiral] | 0 | 0 | 0 | 0 |  | > 10 | > 10 | > 10 | > 10 | 97.7 | 95.7 | 98.9 | 93.5 | 94.3 | 98.6 | 103 | 104 | 101 | 105 | 107 | 107 | 104 | 101 | 96.4 | 98.5 | 97.5 | 101 | 101 | 98.2 |  |  |  |  |  |  |
| CNc1cc2[nH]c(=O)n(-c3ccc(NC(=O)NS(=O)(=O)c4ccc(Cl)s4)cc3)c(=O)c2cc1F [elinogrel] | 0 |  | 0 | 0 | 0 | > 10 |  | > 10 | > 10 | 95.6 | 101 | 100 | 103 | 104 |  |  |  |  |  | 100 | 91.4 | 89.7 | 94.1 | 99.8 | 94.6 | 95.2 | 95.2 | 95.3 | 100 | 95.7 | 103 | 97.2 | 98.3 | 101 | > 10 |
| CCCCN(CCCC)CCC(O)c1cc2c(Cl)cc(Cl)cc2c2cc(C(F)(F)F)ccc12 (centres undefined) [halofantrine] | 0.2 | 0 | 2.1 | 1.9 | 0 | > 10 | > 10 |  | > 10 | 95.2 | 102 | 99.5 | 96.3 | 88 | 90.1 | 93.3 | 103 | 109 | 88.1 | 95.5 | 82.1 | 97.4 | 92.1 | 71.8 | 109 | 103 | 99.9 | 83.3 | 83.8 | 95 | 122 | 104 | 106 | 88.7 | > 10 |
| CON [methoxyamine] | 0 |  | 0 | 0 | 0 | > 10 |  | > 10 | > 10 | 99.2 | 103 | 96.7 | 103 | 96.4 |  |  |  |  |  | 110 | 110 | 102 | 99.7 | 96.8 | 108 | 94.6 | 99.3 | 106 | 106 | 102 | 102 | 99.9 | 96.9 | 100 | > 10 |
| COc1ccc(-c2cc(=O)c3c(OC)c(OC)c(OC)c(OC)c3o2)cc1OC [nobiletin] | 0 | 0.2 | 3.4 | 0 | 1.1 | > 10 | > 10 |  | > 10 | 94.4 | 103 | 94 | 99.7 | 92.3 | 99.5 | 111 | 106 | 104 | 83.8 | 96.9 | 108 | 102 | 83.2 | 68.6 | 102 | 104 | 94.5 | 93.5 | 91.6 | 86.4 | 99.4 | 100 | 95.3 | 80.9 | > 10 |
| O=C(O)CCCNC(=O)c1cccnc1 [pikamilone] | 0 |  | 0 | 0 | 0 | > 10 |  | > 10 | > 10 | 106 | 97.4 | 103 | 99.4 | 104 |  |  |  |  |  | 107 | 113 | 99.8 | 110 | 94.6 | 102 | 105 | 102 | 102 | 98.4 | 99.8 | 98.3 | 98.4 | 95.6 | 99.8 | > 10 |
| CC(C)(C)C(=O)OCOC(=O)[C@@H]1N2C(=O)[C@@H](NC(=O)[C@H](N)c3ccccc3)[C@H]2SC1(C)C [pivampicillin] | 0 | 0 | 0.2 | 0 |  | > 10 | > 10 | > 10 | > 10 | 98.4 | 94 | 101 | 93.3 | 97.6 | 110 | 108 | 97.7 | 98.4 | 117 | 114 | 97.7 | 91.9 | 82 | 96.9 | 103 | 104 | 101 | 99.4 | 102 |  |  |  |  |  |  |
| O=C(O)CCn1c2c(c3ccccc31)C[C@H](NS(=O)(=O)c1ccc(F)cc1)CC2 [ramatroban] | 0 | 0 | 0 | 0 |  | > 10 | > 10 | > 10 | > 10 | 100 | 98.4 | 95.8 | 101 | 104 | 92.4 | 97.7 | 94.1 | 104 | 101 | 104 | 95.6 | 103 | 93.6 | 110 | 98 | 95.7 | 92.4 | 97.4 | 104 |  |  |  |  |  |  |
| CC(C)(Oc1ccc(Cl)cc1)C(=O)N1CSCC1C(=O)O (centres undefined) [timofibrate] | 0 |  | 0 | 0 | 0 | > 10 |  | > 10 | > 10 | 95.5 | 105 | 98.2 | 103 | 104 |  |  |  |  |  | 99 | 102 | 108 | 96.8 | 113 | 99.5 | 104 | 96 | 94.8 | 105 | 87.1 | 99.6 | 95.7 | 98.9 | 103 | > 10 |
| CC1=C(/C=C/C(C)=C/C=C/C(C)=C/C(=O)O)C(C)(C)CCC1 [tretinoin] | 0 | 1.2 ± 0.28 | 0 | 0 | 0.9 ± 1.1 | > 10 | > 10 | > 10 | > 10 | 98.8 ± 0.28 | 95.3 ± 4 | 94.3 ± 2.3 | 95.6 ± 0.57 | 90.7 ± 0.85 | 106 ± 6.3 | 97.7 ± 1.7 | 106 ± 3.3 | 87.5 ± 2.5 | 85.4 ± 4.5 | 99.8 ± 2.9 | 102 ± 7 | 109.5 ± 0.64 | 101 ± 3.5 | 103 ± 6.5 | 102 ± 5.2 | 101 ± 1.9 | 99.7 ± 3.3 | 98.3 ± 2.1 | 101 ± 1.9 | 103 ± 8.2 | 102 ± 10 | 97.5 ± 1.4 | 101 ± 1.9 | 74.5 ± 18 |  |
| Cc1cc(Nc2ncnc3ccc(NC4=NC(C)(C)CO4)cc23)ccc1Oc1ccn2ncnc2c1 [tucatinib] | 0.1 | 13.7 | 0.2 | 2 | 3.8 | > 10 | 0.191 | > 10 | > 10 | 100 | 104 | 95.3 | 98.2 | 87.9 | 105 | 93.3 | 70.7 | 47.3 | 28.4 | 101 | 96 | 103 | 98.4 | 87.1 | 99.4 | 95.8 | 95.1 | 86.9 | 75.6 | 98.9 | 103 | 99.8 | 92.5 | 52 |  |
